From patent publication EP4813993A1, “COMPOUND, PREPARATION METHOD THEREFOR, AND USE THEREOF” (Sichuan Kelun Pharmaceutical Research Institute Co., Ltd., priority 2023, dated 2025)
pIC50: −log10 of the molar value.

Key:
[1] = tested on: CFA-induced rat inflammatory pain model; assay: CFA-induced rat inflammatory pain model, Von Frey test; format: in vivo, SD rats; settings: SD rats CFA, Mean + SEM, n = 10
Description: Experimental Example 9: Pharmacodynamic effect study of compounds in CFA-induced rat inflammatory pain model Experimental animals: SD rats, male, 180-220 g.
Compound preparation: 5% (final preparation volume) of DMSO was added to dissolve the test compound, and then 10% (final preparation volume) of Cremophor EL and 85% Saline were sequentially added; an appropriate amount of Celecoxib was weighed, 5% (final preparation volume) of DMSO was added to dissolve the test compound, and then 5% (final preparation volume) of HS-15 and 90% Saline were sequentially added.
SD rats were anesthetized with isoflurane. The right hind paw was disinfected, a needle was inserted subcutaneously at the posterior plantar aspect, and 50 µL of complete Freund's adjuvant (CFA, 1 mg/mL) was administered via subcutaneous injection at the midplantar region, with the needle withdrawn slowly while rotating to prevent leakage. After modeling, local redness and swelling of the soles of the feet, difficulty in walking, and lifting of the affected feet were observed.
(§1) 2. Administration and test
(§2) The Von Frey test was performed once before the surgery. On the second day after animal modeling, animals meeting the baseline requirements were selected for enrollment. The animals were randomly divided into 6 groups based on the 50% PWT values, with 10 animals per group. Administration was performed under a double-blind test protocol. The 50% PWT of the animals was measured separately before administration (baseline) and at 0.5 h, 2 h, and 8 h after administration. The model control group was given normal saline, while the compound groups were given the compounds according to the administration doses in the table below.

[2] = tested on: incision pain model; assay: Incision pain model in ICR mice, Von Frey test; format: in vivo; settings: 50 mg/kg single dose, Mean + SEM, n = 10
[3] = biological target: T1, Nav1.8 channels (Homo sapiens, UniProt Q9Y5Y9); assay: Manual patch-clamp, current of stably overexpressed Nav1.8 channels (resting state voltage program); format: cell-based; settings: for inhibition at 0.001 µM: concentration of 1 nM, read-out: Inhibition rate %
T1 construct: expressed in transfected cells
In short: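 Whole-cell manual patch clamp on cells stably overexpressing Nav1.8, held at -120 mV and stepped to 0 mV for 50 ms every 20 s (resting-state protocol). Compounds were perfused in ascending concentrations, each for 5 min or until stable; block of peak current was calculated at steady state.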

[4] = tested on: incision pain model; assay: Incision pain model in ICR mice, Von Frey test; format: in vivo; settings: Mean + SEM, n = 10; for PWT 50% value (g) Post-surgery, Preadministration / PWT 50% value (g) Pre-surgery: 50 mg/kg group; for PWT 50% value (g) Post-surgery, Preadministration: baseline before administration; for PWT 50% value (g) Pre-surgery: baseline before surgery; for PWT 50% value (g) 0.5 h / PWT 50% value (g) 2 h / PWT 50% value (g) 4 h: 50 mg/kg single dose; for PWT 50% value (g) 0.5 h: 0.5 h after administration; for PWT 50% value (g) 2 h: 2 h after administration; for PWT 50% value (g) 4 h: 4 h after administration
Description: Experimental Example 6: Pharmacodynamic effect study of compounds in incision pain model in ICR mice Experimental animals: ICR mice, male, 28-35 g.
(§3) Compound preparation: 5% (final preparation volume) of DMSO was added to dissolve the test compound, and then 10% (final preparation volume) of Cremophor EL and 85% Saline were sequentially added.
A plantar incision pain model was established in mice via surgery before the administration and test. Mice were placed in an anesthesia induction chamber and given 3%-4% isoflurane for anesthesia induction. After the anesthesia induction, a breathing mask was applied, and the isoflurane concentration was adjusted to 1%-2% to prevent the mice from suffering pain during the surgery. Each mouse was placed in a supine position, and the surgical site was disinfected with alcohol and iodophor. Under sterile conditions, a 0.5 cm longitudinal incision was made on the left hind paw surface, 0.2 cm away from the heel, extending toward the toes. The skin and fascia were incised; the plantar muscle was separated, slightly lifted, and longitudinally incised. The skin was then sutured with 5-0 sutures and disinfected.
as §1
as §2, with “modeling, the test was repeated, and” for “modeling,”, “grouped” for “divided into 6 groups”, “4” for “8”, “administration, and a single dose was administered.” for “administration.”

[5] = Tissue distribution study (dorsal root ganglia) in ICR mice; format: in vivo; settings: male, mouse, oral administration 20 mg/kg
Description: Experimental Example 4: Tissue distribution study of compounds in ICR mice
(§4) Experimental animals: ICR mice, male, 6-8 weeks old.
as §3
Experimental design: The test compounds were administered to ICR mice as a single dose via oral administration (20 mg/kg; n = 3, 3 time points). Blood samples were collected at 0.25 h, 2 h, and 12 h after oral administration, followed by sacrifice of the animals. Dorsal root ganglia (DRG) were collected, rinsed with ice-cold normal saline to remove residual blood, blotted dry with absorbent paper, and stored at -70 °C for analysis.
Sample test: The concentrations of the compound drugs in dorsal root ganglia were determined by the LC-MS/MS method.

[6] = Pharmacokinetic study in ICR mice; format: in vivo; settings: mouse
Description: Experimental Example 3: Pharmacokinetic study of compounds in ICR mice
as §4, §3
The injection group was given free access to food and water. The oral group was fasted overnight (> 12 h) with free access to water, and was fed 4 h after administration. Blood samples were collected from the jugular vein of ICR mice at the following time points: 5 min, 15 min, 0.5 h, 1 h, 2 h, 4 h, 8 h, and 24 h after injection administration; 15 min, 0.5 h, 1 h, 2 h, 4 h, 6 h, 8 h, and 24 h after oral administration. The collected blood samples were anticoagulated, placed in an ice bath, and then centrifuged for 5 min to separate plasma. The plasma was stored at -70 °C for analysis.
Sample test: The concentrations of the designated compound drugs in plasma were determined by the LC-MS/MS method; the main pharmacokinetic parameters were calculated using the Winnolin 8.3 non-compartmental model. Pharmacokinetic test results of some compounds of the present disclosure in ICR mice

[7] = male, plasma, Oral administration, 10 mg/kg
[8] = male, plasma, iv, Injection (i.v.), 2 mg/kg

T1 sequence (Q9Y5Y9 whole entry): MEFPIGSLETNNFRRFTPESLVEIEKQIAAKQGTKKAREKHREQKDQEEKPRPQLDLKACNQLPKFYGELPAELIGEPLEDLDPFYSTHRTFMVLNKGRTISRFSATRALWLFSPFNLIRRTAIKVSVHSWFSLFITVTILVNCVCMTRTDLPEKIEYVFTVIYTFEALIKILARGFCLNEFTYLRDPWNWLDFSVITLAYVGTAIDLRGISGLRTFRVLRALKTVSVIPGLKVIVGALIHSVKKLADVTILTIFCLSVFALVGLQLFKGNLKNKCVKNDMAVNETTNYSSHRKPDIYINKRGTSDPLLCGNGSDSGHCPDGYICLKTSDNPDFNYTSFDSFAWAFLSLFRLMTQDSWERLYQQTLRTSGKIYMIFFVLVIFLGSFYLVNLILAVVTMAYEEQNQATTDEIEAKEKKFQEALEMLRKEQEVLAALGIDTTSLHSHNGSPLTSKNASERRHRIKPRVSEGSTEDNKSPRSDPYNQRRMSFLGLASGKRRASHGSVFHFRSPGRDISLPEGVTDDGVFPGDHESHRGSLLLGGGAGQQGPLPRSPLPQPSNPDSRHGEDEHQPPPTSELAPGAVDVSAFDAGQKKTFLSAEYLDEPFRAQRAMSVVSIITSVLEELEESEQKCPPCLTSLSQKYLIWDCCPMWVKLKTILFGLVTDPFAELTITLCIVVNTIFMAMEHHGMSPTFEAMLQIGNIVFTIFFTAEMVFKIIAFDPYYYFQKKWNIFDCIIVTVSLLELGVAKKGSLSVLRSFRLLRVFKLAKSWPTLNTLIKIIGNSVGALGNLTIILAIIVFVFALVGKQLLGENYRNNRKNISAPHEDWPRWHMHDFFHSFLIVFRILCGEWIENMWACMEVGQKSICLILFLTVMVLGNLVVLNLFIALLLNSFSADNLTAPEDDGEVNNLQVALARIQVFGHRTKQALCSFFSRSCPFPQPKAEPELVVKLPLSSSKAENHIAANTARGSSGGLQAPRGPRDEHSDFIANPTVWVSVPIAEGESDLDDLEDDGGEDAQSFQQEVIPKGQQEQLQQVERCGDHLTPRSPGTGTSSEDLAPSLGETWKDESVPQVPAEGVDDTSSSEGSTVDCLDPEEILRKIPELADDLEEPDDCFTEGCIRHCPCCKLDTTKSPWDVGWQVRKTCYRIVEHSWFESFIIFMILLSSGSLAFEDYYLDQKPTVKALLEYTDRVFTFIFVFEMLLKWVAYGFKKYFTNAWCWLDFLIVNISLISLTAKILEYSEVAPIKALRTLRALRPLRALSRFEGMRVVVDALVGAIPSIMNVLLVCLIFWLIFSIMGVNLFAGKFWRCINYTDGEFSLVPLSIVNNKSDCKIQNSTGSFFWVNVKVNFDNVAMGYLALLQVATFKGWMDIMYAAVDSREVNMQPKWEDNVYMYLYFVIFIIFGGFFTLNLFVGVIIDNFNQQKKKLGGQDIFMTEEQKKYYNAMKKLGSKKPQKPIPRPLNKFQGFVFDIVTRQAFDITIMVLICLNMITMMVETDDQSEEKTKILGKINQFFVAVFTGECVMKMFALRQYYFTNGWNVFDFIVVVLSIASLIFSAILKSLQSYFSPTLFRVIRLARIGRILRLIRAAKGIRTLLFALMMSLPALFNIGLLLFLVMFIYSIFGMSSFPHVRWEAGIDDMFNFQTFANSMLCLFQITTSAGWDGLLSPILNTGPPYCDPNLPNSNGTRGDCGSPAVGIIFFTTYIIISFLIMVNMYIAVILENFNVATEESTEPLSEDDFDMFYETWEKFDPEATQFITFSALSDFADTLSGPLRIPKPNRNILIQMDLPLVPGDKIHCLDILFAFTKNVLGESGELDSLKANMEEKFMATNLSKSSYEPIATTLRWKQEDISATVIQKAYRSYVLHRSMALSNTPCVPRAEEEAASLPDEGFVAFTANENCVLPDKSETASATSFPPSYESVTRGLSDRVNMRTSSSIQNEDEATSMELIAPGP

Row | Compound | PWT 50% value (g) AUC0-8h [2] | PWT 50% value (g) Post-surgery, Preadministration [4] | PWT 50% value (g) Pre-surgery [4] | PWT 50% value (g) 0.5 h [4] | PWT 50% value (g) 2 h [4] | PWT 50% value (g) 4 h [4] | pIC50 [3] | further results
1 | Cc1ccc(-c2cc(C(F)(F)F)nn2-c2ccc(S(N)(=O)=O)cc2)cc1 [Celecoxib, reference compound] |  |  |  |  |  |  |  | PWT 50% value (g) Post-surgery, Preadministration ([1]; 80 mg/kg group, baseline before administration): 3.12 ± 1.14 g; PWT 50% value (g) Pre-surgery ([1]; 80 mg/kg group, baseline before modeling): 11.74 ± 2.33 g; PWT 50% value (g) Time 0.5 h ([1]; 80 mg/kg, 0.5 h after administration): 5.91 ± 4.09 g; PWT 50% value (g) Time 2 h ([1]; 80 mg/kg, 2 h after administration): 4.66 ± 1.69 g; PWT 50% value (g) Time 8 h ([1]; 80 mg/kg, 8 h after administration): 3.4 ± 1.38 g; PWT 50% value (g) AUC0-8h ([1]; 80 mg/kg): 40.7 ± 15.63 g
2 | COc1c([C@@H]2C[C@](C)(C(F)(F)F)S[C@H]2C(=O)Nc2ccc(F)c(S(N)(=O)=O)c2)ccc(F)c1F [Compound 233-A, (2R,3S,5R)-3-(3,4-difluoro-2-methoxyphenyl)-N-(4-fluoro-3-sulfamoylphenyl)-5-methyl-5-(trifluoromethyl)tetrahydrothiophene-2-carboxamide] | 3.21 ± 1.35 g·h | 0.22 ± 0.02 g | 1.54 ± 0.4 g | 0.42 ± 0.34 g | 0.62 ± 0.32 g | 0.41 ± 0.21 g |  | inhibition at 0.001 µM [3]: 94.1%; concentration at 0.25 h ([5]; Time 0.25 h): 400 ng/g; concentration at 2 h ([5]; Time 2 h): 2850 ng/g; concentration at 12 h ([5]; Time 12 h): 489 ng/g; AUC(0-inf) [6, 7]: 34100 ng·h/mL; AUC(0-inf) [6, 8]: 9490 ng·h/mL
3 | COc1c([C@@H]2C[C@](C)(C(F)(F)F)S[C@H]2C(=O)Nc2ccn3nncc3c2)ccc(F)c1F [Compound 246-A, (2R,3S,5R)-3-(3,4-difluoro-2-methoxyphenyl)-5-methyl-N-((1,2,3)triazolo(1,5-a)pyridin-5-yl)-5-(trifluoromethyl)tetrahydrothiophene-2-carboxamide] | 2.53 ± 0.82 g·h | 0.24 ± 0.03 g | 1.4 ± 0.17 g | 0.32 ± 0.12 g | 0.33 ± 0.16 g | 0.4 ± 0.27 g |  | inhibition at 0.001 µM [3]: 77.8%; AUC(0-inf) [6, 7]: 2580 ng·h/mL; AUC(0-inf) [6, 8]: 1400 ng·h/mL
4 | COc1c([C@@H]2C[C@](C)(C(F)(F)F)S[C@H]2C(=O)Nc2ccc3c(c2)S(=O)(=O)NC3)ccc(F)c1F [Compound a-37-A, (2R,3S,5R)-3-(3,4-difluoro-2-methoxyphenyl)-N-(1,1-dioxide-2,3-dihydrobenzo[d]isothiazol-6-yl)-5-methyl-5-(trifluoromethyl)tetrahydrothiophene-2-carboxamide] | 2.71 ± 0.39 g·h | 0.24 ± 0.03 g | 1.43 ± 0.33 g | 0.33 ± 0.12 g | 0.55 ± 0.18 g | 0.32 ± 0.1 g |  | AUC(0-inf) ([6]; in vivo, Oral administration, 10 mg/kg): 8130 ng·h/mL; AUC(0-inf) ([6]; in vivo, iv, Injection (i.v.), 2 mg/kg): 2030 ng·h/mL
5 | COc1c([C@@H]2C[C@](C)(C(F)(F)F)S[C@H]2C(=O)Nc2ccc(NS(N)(=O)=O)c(F)c2)ccc(F)c1F [a-19-A, (2R,3S,5R)-3-(3,4-difluoro-2-methoxyphenyl)-N-[3-fluoro-4-(sulfamoylamino)phenyl]-5-methyl-5-(trifluoromethyl)thiolane-2-carboxamide] | 3.04 ± 0.83 g·h | 0.29 ± 0.13 g | 1.33 ± 0.46 g | 0.47 ± 0.22 g | 0.51 ± 0.29 g | 0.44 ± 0.18 g | 9.47 | 
6 | COc1c([C@@H]2C[C@](C)(C(F)(F)F)S[C@H]2C(=O)Nc2ccnc(NC#N)c2)ccc(F)c1F [a-34-A, (2R,3S,5R)-N-(2-cyanoaminopyridin-4-yl)-3-(3,4-difluoro-2-methoxyphenyl)-5-methyl-5-(trifluoromethyl)tetrahydrothiophene-2-carboxamide] | 2.81 ± 0.57 g·h | 0.24 ± 0.03 g | 1.41 ± 0.33 g | 0.32 ± 0.15 g | 0.51 ± 0.15 g | 0.35 ± 0.16 g | 10.40 | 
7 | CO/N=C(\N)c1cc(NC(=O)[C@@H]2S[C@@](C)(C(F)(F)F)C[C@H]2c2ccc(F)c(F)c2OC)ccn1 [a-57-A] | 4.4 ± 0.41 g·h | 0.22 ± 0.02 g | 1.29 ± 0.22 g | 0.43 ± 0.18 g | 0.38 ± 0.14 g | 0.29 ± 0.11 g | 10.64 | 
8 | COc1c([C@@H]2C[C@](C)(C(F)(F)F)S[C@H]2C(=O)Nc2cccc(S(=O)(=O)N=[N+]=[N-])c2)ccc(F)c1F [a-65-A, 3-((2R,3S,5R)-3-(3,4-difluoro-2-methoxyphenyl)-5-methyl-5-(trifluoromethyl)tetrahydrothiophene-2-carboxamido)benzenesulfonyl azide] | 4.87 ± 0.97 g·h | 0.22 ± 0.02 g | 1.13 ± 0.08 g | 0.38 ± 0.16 g | 0.43 ± 0.17 g | 0.51 ± 0.2 g | 10.77 | 
